Results published in article PMC7180830, “Scaffold Hopping in Discovery of HIV-1 Non-Nucleoside Reverse Transcriptase Inhibitors: From CH(CN)-DABOs to CH(CN)-DAPYs” (Molecules, 2020).
Where two headings read alike, the source gives them in different places.

Tests used:
[1] = test system: HIV-1 Y181C mutant strain; test: Anti-HIV assay against Y181C mutant strain in MT-4 cells; assay type: cell-based; conditions: Human immunodeficiency virus 1, MT4, read-out: EC50 Y181C
Protocol: (§2) Evaluation of the antiviral activity of the compounds against HIV in MT-4 cells was performed using the MTT assay as previously described [24, 25]. […] Prior to use in our assays, every freshly grown virus stock was the subject of a genotypic analysis. In addition to the genotypic analysis, every stock was subject to a phenotypic analysis using a panel of relevant reference compounds in MT-4 cells. […] Stock solutions (10× final concentration) of test compounds were added in 25 μL volumes to two series of triplicate wells so as to allow simultaneous evaluation of their effects on mock- and HIV-infected cells at the beginning of each experiment. Serial 5-fold dilutions of test compounds were made directly in flat-bottomed 96-well microtiter trays using a Biomek 3000 robot (Beckman instruments, Fullerton, CA). Untreated HIV- and mock-infected cell samples were included as controls. HIV stock (50 μL) at 100–300 CCID50 (50% cell culture infectious doses) and culture medium (final 200 μL volume per well) were added to either the infected or mock-infected wells of the microtiter tray. Mock-infected cells were used to evaluate the effects of test compounds on uninfected cells in order to assess the cytotoxicity of the test compounds. Exponentially growing MT-4 cells were centrifuged for 5 min at 220× g and the supernatant was discarded. The MT-4 cells were resuspended at 6 × 10^5 cells/mL and 50 μL volumes were transferred to the microtiter tray wells. Five days after infection, the viability of mock- and HIV-infected cells was examined spectrophotometrically using the MTT assay. The MTT assay is based on the reduction of yellow colored 3-(4,5-dimethylthiazol-2-yl)-2,5-diphenyltetrazolium bromide (MTT) (Acros Organics, Geel, Belgium) by mitochondrial dehydrogenase activity in metabolically active cells to a blue-purple formazan that can be measured spectrophotometrically. The absorbances were read in an eight-channel computer-controlled photometer (Infinite M1000, Tecan, Männedorf, Switzerland) at two wavelengths (540 and 690 nm). All data were calculated using the median absorbance value of three wells.

HIV-1 IIIB = test: Anti-HIV assay against wild-type HIV-1 (IIIB) in MT-4 cells, MTT method; assay type: cell-based; conditions: for SI (selectivity index, ratio CC50/EC50 (WT)): CC50/EC50 WT HIV-1 IIIB
Protocol: (§1) Untreated HIV- and mock-infected cell samples were included as controls. […] Five days after infection, the viability of mock- and HIV-infected cells was examined spectrophotometrically using the MTT assay. […] All data were calculated using the median absorbance value of three wells.

[2] = test system: HIV-1 L100I mutant strain; test: Anti-HIV assay against L100I mutant strain in MT-4 cells; assay type: cell-based; conditions: Human immunodeficiency virus 1, MT4, read-out: EC50 L100I
Protocol: as §2

[3] = Cytotoxicity in mock-infected MT-4 cells, MTT method; conditions: human, mock-infected (uninfected) MT-4 cells
Protocol: as §1

[4] = test system: HIV-1 F227L + V106A mutant strain; test: Anti-HIV assay against double mutant F227L + V106A in MT-4 cells; assay type: cell-based; conditions: Human immunodeficiency virus 1, MT4, read-out: EC50 F227L + V106A
Protocol: as §2

[5] = test system: HIV-1 K103N mutant strain; test: Anti-HIV assay against K103N mutant strain in MT-4 cells; assay type: cell-based; conditions: Human immunodeficiency virus 1, MT4, read-out: EC50 K103N
Protocol: as §2

[6] = test system: HIV-1 E138K mutant strain; test: Anti-HIV assay against E138K mutant strain in MT-4 cells; assay type: cell-based; conditions: Human immunodeficiency virus 1, MT4, read-out: EC50 E138K
Protocol: as §2

[7] = test system: HIV-1 K103N + Y181C mutant strain; test: Anti-HIV assay against double mutant K103N + Y181C in MT-4 cells; assay type: cell-based; conditions: Human immunodeficiency virus 1, MT4, read-out: EC50 K103N + Y181C
Protocol: as §2

[8] = Human immunodeficiency virus 1, IIIB, MT4, read-out: EC50 HIV-1 IIIB
[9] = Human immunodeficiency virus 1, MT4, wild-type HIV-1 IIIB, MT-4 cells, protection against HIV-induced cytopathogenicity, read-out: EC50 HIV-1 IIIB

Structure (SMILES)	EC50 [1] [nM]	EC50 (HIV-1 IIIB; [8]) [nM]	EC50 [2] [nM]	CC50 at 5 days [3] [nM]	EC50 [4] [nM]	EC50 [5] [nM]	EC50 [6] [nM]	EC50 [7] [nM]	SI (selectivity index, ratio CC50/EC50 (WT)) (HIV-1 IIIB; MT-4 cells)	melting point [°C]	fold increase of antiviral activity compared with A2 (HIV-1 IIIB; WT HIV-1 IIIB, relative to A2) [fold]	EC50 (HIV-1 IIIB; [9]) [nM]
N#Cc1ccc(Nc2nccc(C(C#N)c3ccc(C#N)cc3)n2)cc1 (stereo not shown) [Compound A1, 4-(4-(cyano-(4-cyanophenyl)methyl)-pyrimidin-2-ylamino)benzonitrile]	11300 ± 1510	3270 ± 2250	≥ 12300	32700 ± 9900	> 32700	> 32700	> 32700	> 32700				
Cc1cc(C(C#N)c2ccnc(Nc3ccc(C#N)cc3)n2)ccc1C#N (stereo not shown) [Compound A2, 4-(4-(cyano-(3-methyl-4-cyanophenyl)methyl)-pyrimidin-2-ylamino)benzonitrile]	> 16100	1170 ± 340	> 16100	16100 ± 3600	> 16100	> 16100	> 16100	> 16100	14	223.7 to 224.9		
Cc1cc(C#N)ccc1C(C#N)c1ccnc(Nc2ccc(C#N)cc2)n1 (stereo not shown) [Compound A3, 4-(4-(cyano-(2-methyl-4-cyanophenyl)methyl)-pyrimidin-2-ylamino)benzonitrile]	1710 ± 130	69 ± 8	5030 ± 550	10900 ± 3600	> 10900	1960 ± 450	3040 ± 390	> 10900	157	213.5 to 214.6	17	
COc1cc(C(C#N)c2ccnc(Nc3ccc(C#N)cc3)n2)ccc1C#N (stereo not shown) [Compound A4, 4-(4-(cyano-(3-methoxy-4-cyanophenyl)methyl)-pyrimidin-2-ylamino)benzonitrile]	≥ 48100	11700 ± 12100	≥ 61400	78400 ± 10400	≥ 61000	≥ 62200	≥ 56600	≥ 65700	7	156.2 to 157		
N#Cc1ccc(Nc2nccc(C(C#N)c3ccc(C#N)cc3C(F)(F)F)n2)cc1 (stereo not shown) [Compound A6, 4-(4-(cyano-(2-trifluoromethyl-4-cyanophenyl)methyl)-pyrimidin-2-ylamino)benzonitrile]	2290 ± 20	490 ± 300	> 6230	6200 ± 1400	> 6230	> 6230	> 6230	> 6230	13	236.7 to 237.5		
N#Cc1ccc(Nc2nccc(C(C#N)c3ccc(C#N)cc3F)n2)cc1 (stereo not shown) [Compound A7, 4-(4-(cyano-(2-fluoro-4-cyanophenyl)methyl)-pyrimidin-2-ylamino)benzonitrile]	> 10400	240 ± 160	> 10400	10300 ± 4500	> 10400	> 10400	> 10400	> 10400	43	165.7 to 166.5		
N#Cc1ccc(Nc2nccc(C(C#N)c3ccc(C#N)cc3Cl)n2)cc1 (stereo not shown) [Compound A8, 4-(4-(cyano-(2-chloro-4-cyanophenyl)methyl)-pyrimidin-2-ylamino)benzonitrile]	1870 ± 210	63 ± 9	≥ 2370	4600 ± 2700	> 4590	2130 ± 220	2200 ± 350	> 4590				
N#Cc1ccc(Nc2nccc(C(C#N)c3ccc(C#N)cc3Br)n2)cc1 (stereo not shown) [Compound A9, 4-(4-(cyano-(2-bromo-4-cyanophenyl)methyl)-pyrimidin-2-ylamino)benzonitrile]	1880 ± 420	79 ± 20	> 3350	3400 ± 300	> 3350	≥ 1880	2310 ± 20	> 3350	42	223.5 to 224.7		
N#Cc1ccc(Nc2nccc(C(C#N)c3c(Cl)cc(C#N)cc3Cl)n2)cc1 (stereo not shown) [Compound A10, 4-(4-(cyano-(2,6-dichloro-4-cyanophenyl)methyl)-pyrimidin-2-ylamino)benzonitrile]	2200 ± 270	82 ± 20	2320 ± 480	4500 ± 1300	> 4490	1780 ± 120	2190 ± 220	> 4490	55	152.5 to 153.2		
Cc1c(C(C#N)c2ccnc(Nc3ccc(C#N)cc3)n2)ccc(C#N)c1Cl (stereo not shown) [Compound A11, 4-(4-(cyano-(2-methyl-3-chloro-4-cyanophenyl)methyl)-pyrimidin-2-ylamino)benzonitrile]	> 6110	300 ± 30	2320 ± 480	6100 ± 500	> 6110	> 6110	> 6110	> 6110				
Cc1cc(C#N)c(Br)cc1C(C#N)c1ccnc(Nc2ccc(C#N)cc2)n1 (stereo not shown) [Compound A12, 4-(4-(cyano-(2-methyl-5-bromo-4-cyanophenyl)methyl)-pyrimidin-2-ylamino)benzonitrile]	2780 ± 360	240 ± 40	> 13200	13200 ± 1600	> 13200	2520 ± 420	3730 ± 590	> 13200				
O=C1Nc2ccc(Cl)cc2[C@@](C#CC2CC2)(C(F)(F)F)O1 [Efavirenz, efavirenz, reference compound]	6 ± 1		40 ± 8	> 6300	280 ± 70	80 ± 10	5 ± 2	240 ± 60	>3939			3 ± 1
Cc1cc(C#N)cc(C)c1Oc1nc(Nc2ccc(C#N)cc2)nc(N)c1Br [Etravirine, etravirine, reference compound]	17 ± 3	5 ± 1	8 ± 2	> 4600	14 ± 5	3 ± 1	8 ± 4	40 ± 10				
Cc1ccnc2c1NC(=O)c1cccnc1N2C1CC1 [Nevirapine, nevirapine, reference compound]			980 ± 390	> 15000	≥ 4280	4700 ± 630	200 ± 150	> 15000				200 ± 100
Cc1cc(/C=C/C#N)cc(C)c1Nc1ccnc(Nc2ccc(C#N)cc2)n1 [Rilpivirine, rilpivirine, reference compound]	3 ± 1	1.6 ± 0.3	2 ± 1	5900 ± 300	40 ± 10	1 ± 0.2	3 ± 1	9 ± 2	3747			
